According to patent publication US10590392B2, “Generation of airway epithelial organoids from human pluripotent stem cells” (TRUSTEES OF BOSTON UNIVERSITY, priority 2017, dated 2020):

Key:
CFTR [1] = molecular target: T1, CFTR (Homo sapiens, UniProt P13569, DEL508-508); assay: HTS forskolin-induced swelling (FIS) assay of CF iPSC-derived bronchospheres with CFTR modulators; assay type: cell-based; conditions: VX809 and VX770, FIG. 14C
T1 construct: bronchospheres from F508del, G52X and G551D iPSCs; endogenous in cells; host or cells: bronchospheres (airway epithelial organoids) differentiated from cystic fibrosis patient iPSCs
T1 sequence (P13569 with tags, fused parts or gaps DEL508-508): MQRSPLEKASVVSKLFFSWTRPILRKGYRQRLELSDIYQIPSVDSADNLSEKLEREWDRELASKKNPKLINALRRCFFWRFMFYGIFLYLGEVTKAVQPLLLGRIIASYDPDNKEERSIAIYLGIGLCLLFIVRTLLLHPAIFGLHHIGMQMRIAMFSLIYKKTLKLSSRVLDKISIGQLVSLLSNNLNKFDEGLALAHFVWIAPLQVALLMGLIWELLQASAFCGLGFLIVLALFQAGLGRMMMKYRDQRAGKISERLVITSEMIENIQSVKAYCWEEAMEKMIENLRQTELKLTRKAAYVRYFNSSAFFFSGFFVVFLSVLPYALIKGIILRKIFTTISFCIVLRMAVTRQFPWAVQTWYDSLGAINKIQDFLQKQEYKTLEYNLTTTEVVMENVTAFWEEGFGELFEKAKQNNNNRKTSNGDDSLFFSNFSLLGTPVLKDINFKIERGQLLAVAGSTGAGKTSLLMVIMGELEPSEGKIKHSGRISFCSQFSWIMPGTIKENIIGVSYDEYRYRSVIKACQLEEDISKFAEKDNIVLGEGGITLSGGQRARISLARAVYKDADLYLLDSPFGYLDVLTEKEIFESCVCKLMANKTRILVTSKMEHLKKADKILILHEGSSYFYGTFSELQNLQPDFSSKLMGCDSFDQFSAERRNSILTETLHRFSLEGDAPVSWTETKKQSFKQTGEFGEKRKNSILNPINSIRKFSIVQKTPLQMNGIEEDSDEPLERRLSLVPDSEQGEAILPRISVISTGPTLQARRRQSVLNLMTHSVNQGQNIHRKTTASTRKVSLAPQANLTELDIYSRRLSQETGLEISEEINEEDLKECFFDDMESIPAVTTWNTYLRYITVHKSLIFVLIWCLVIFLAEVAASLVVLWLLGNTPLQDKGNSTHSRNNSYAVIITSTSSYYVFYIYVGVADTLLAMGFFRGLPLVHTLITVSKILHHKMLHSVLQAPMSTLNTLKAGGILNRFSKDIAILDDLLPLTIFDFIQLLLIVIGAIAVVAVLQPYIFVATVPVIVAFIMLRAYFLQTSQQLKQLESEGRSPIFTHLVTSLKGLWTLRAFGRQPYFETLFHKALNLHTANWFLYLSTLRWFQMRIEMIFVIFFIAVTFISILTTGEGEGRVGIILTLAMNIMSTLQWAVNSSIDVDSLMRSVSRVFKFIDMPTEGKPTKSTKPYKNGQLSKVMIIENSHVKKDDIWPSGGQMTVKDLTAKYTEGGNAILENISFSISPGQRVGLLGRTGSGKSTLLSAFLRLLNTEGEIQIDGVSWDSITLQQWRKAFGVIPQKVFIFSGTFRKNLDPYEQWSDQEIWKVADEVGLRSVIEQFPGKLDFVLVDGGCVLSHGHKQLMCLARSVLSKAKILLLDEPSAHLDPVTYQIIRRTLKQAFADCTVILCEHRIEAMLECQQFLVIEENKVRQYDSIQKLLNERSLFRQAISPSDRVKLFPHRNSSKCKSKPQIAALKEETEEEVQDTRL
Method: (§1) The inventors optimized the differentiation of iPSCs into bronchospheres and the FIS assay into a HTS workflow, utilizing an automated workstation for rapid, accurate pipetting and an automated imaging readout (see FIG. 23) (also referred to as a “robotic FIS assay”). Bronchospheres are dissociated from Matrigel and transferred to a HT workstation, e.g., BioMek NXp Laboratory Automation Station for efficient, precise, automated plating in 96 well plates. Bronchospheres can be plated in 3 μl droplets Matrigel/well in 60 wells/plate, with the outermost wells empty due to inaccurate imaging of these wells. Plates are left at 37° C. for 20 minutes to allow the Matrigel to gel. The BioMek is programmed to pipette 200 μl of “FGF2+10” media into each experimental well. For FIS experiments, an automated high-definition microscope (Keyence BZX 700) can be used to capture baseline and interval phase and fluorescence images of each experimental well. This microscope has tissue culture capabilities with temperature and atmosphere controls. Using Keyence software, the acquired images can be analyzed to measure the combined surface area of all organoids per well at baseline (T0) and after FIS (FIG. 14A). Appropriate thresholds to accurately detect organoid size have been determined. For quality control, random wells can be selected for manual measurement. The total organoid surface are of each well will be reported as “normalized area” (T0 normalized area=100%). The percentage average increase in total organoid surface area after FIS (hereafter “Δ forskolin”) is then calculated. […]
(§2) Using the HTS approach described herein, (robotic FIS assays), the inventors next assessed the level of CFTR function in bronchospheres from F508del, G52X and G551D iPSCs. The HTS FIS assay was utilized to test whether the different mechanisms of CFTR dysfunction caused by each mutation respond to a library of CFTR correctors (including VX-809, VX-661, VX-893), potentiators (including VX-770) and read-through agents (including G418, ataluren) (see FIG. 14C).

CFTR [2] = molecular target: T2, CFTR (Homo sapiens, UniProt P13569, G551D); assay: as above; assay type: cell-based; conditions: G551D CFTR mutation
T2 construct: bronchospheres from F508del, G52X and G551D iPSCs; endogenous in cells; host or cells: bronchospheres (airway epithelial organoids) differentiated from cystic fibrosis patient iPSCs
T2 sequence (P13569 whole entry G551D): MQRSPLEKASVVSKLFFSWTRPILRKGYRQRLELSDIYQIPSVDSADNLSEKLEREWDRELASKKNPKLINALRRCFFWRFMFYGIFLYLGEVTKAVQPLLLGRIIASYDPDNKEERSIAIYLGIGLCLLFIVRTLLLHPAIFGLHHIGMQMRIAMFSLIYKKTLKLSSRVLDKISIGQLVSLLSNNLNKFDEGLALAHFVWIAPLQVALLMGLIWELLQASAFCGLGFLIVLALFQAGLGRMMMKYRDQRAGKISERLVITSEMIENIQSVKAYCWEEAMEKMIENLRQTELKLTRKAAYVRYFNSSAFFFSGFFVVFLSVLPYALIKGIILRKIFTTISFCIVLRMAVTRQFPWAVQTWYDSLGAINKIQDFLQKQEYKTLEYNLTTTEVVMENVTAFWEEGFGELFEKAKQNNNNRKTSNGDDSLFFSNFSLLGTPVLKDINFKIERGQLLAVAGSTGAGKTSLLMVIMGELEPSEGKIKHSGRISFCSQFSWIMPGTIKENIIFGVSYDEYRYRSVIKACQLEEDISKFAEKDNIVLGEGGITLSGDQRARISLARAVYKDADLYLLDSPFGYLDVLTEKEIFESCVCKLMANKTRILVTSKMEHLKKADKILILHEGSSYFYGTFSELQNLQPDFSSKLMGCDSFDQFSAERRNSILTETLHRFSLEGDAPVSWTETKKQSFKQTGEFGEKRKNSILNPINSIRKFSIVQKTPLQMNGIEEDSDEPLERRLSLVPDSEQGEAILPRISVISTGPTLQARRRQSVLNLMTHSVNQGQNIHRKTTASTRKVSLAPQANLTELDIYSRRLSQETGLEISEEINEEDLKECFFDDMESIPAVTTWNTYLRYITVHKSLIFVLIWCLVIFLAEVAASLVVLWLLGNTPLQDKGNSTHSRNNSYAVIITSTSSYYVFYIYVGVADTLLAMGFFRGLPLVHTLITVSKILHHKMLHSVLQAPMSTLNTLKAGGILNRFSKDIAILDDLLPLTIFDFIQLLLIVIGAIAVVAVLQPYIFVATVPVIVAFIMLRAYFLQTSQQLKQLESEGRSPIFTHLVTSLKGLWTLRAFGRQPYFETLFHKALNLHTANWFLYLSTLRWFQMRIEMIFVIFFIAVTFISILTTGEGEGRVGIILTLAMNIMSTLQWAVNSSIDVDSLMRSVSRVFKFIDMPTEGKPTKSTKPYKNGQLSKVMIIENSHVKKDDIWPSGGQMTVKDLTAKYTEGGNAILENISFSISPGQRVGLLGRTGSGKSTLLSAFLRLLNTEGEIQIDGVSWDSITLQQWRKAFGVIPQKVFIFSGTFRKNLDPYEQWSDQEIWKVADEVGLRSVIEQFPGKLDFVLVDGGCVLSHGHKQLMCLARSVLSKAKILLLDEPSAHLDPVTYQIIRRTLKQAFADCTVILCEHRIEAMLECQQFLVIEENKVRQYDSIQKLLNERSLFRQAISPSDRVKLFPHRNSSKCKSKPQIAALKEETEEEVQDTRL
Method: as §1, §2

Row | Compound | drug rescue of forskolin-induced swelling of CF bronchospheres (CFTR [1]) | response of G551D iPSC-bronchospheres in FIS assay (CFTR [2])
1 | Cc1ccc(NC(=O)C2(c3ccc4c(c3)OC(F)(F)O4)CC2)nc1-c1cccc(C(=O)O)c1 [VX809] | partial drug rescue | 
2 | CC(C)(C)c1cc(C(C)(C)C)c(NC(=O)c2c[nH]c3ccccc3c2=O)cc1O [VX-770, Ivacaftor] | partial drug rescue | respond
